# Assay results as given in patent US9447091B2, “Protein kinase inhibitors” (Orion Corporation, priority 2011, dated 2016).
# Tests used:
# FGFR1 kinase = FGFR1 kinase (Homo sapiens (Human), UniProt P11362); assay: FGFR1 TR-FRET kinase assay; assay type: biochemical; details: for IC50: 13 μM ATP, read-out: IC50 of FGFR1 inhibition
# Method: Compounds were screened in the TR-FRET assay with FGFR1 kinase. 5 ng of FGFR1 [Upstate, USA] kinase was used for assay. The compound was incubated with the kinase for 30 minutes at RT. After the incubation, substrate mix [40 nM Ultra light poly GT (Perkin Elmer, USA) and 13 μM ATP (Sigma)] was added. The above reaction was stopped by the addition of 40 mM EDTA after the […] kinase reaction. The Eu-labelled antiphospho-tyrosine antibody [Perkin Elmer, USA] was added at 0.5 nM and the fluorescence emission at 615 nm/665 nm [excitation at 340 nm] was measured. The compounds were initially screened at 100 nM and 1 μM concentrations. The compounds with >50% inhibition at 100 nM of FGFR1 were taken for the full dose response studies. The final DMSO concentration in the assay was 1%. For IC50 determination, ⅓^rd serial dilution was made from the 20 mM DMSO stock solution. 2 μl of these were transferred to the test wells containing 20 μl of the reaction mixture [total reaction volume 20 μl]. The fluorescence was measured in Perkin Elmer Wallac 1420 Multilabel Counter Victor 3. The IC50 was determined by fitting the dose response data to sigmoidal curve fitting equation using GraphPad Prism software V5.
# c-Met kinase = c-Met kinase (Homo sapiens (Human), UniProt P08581); assay: c-Met TR-FRET kinase assay; assay type: biochemical; details: 1000 nM compound
# c-Met kinase, sequence (P08581 25-1390): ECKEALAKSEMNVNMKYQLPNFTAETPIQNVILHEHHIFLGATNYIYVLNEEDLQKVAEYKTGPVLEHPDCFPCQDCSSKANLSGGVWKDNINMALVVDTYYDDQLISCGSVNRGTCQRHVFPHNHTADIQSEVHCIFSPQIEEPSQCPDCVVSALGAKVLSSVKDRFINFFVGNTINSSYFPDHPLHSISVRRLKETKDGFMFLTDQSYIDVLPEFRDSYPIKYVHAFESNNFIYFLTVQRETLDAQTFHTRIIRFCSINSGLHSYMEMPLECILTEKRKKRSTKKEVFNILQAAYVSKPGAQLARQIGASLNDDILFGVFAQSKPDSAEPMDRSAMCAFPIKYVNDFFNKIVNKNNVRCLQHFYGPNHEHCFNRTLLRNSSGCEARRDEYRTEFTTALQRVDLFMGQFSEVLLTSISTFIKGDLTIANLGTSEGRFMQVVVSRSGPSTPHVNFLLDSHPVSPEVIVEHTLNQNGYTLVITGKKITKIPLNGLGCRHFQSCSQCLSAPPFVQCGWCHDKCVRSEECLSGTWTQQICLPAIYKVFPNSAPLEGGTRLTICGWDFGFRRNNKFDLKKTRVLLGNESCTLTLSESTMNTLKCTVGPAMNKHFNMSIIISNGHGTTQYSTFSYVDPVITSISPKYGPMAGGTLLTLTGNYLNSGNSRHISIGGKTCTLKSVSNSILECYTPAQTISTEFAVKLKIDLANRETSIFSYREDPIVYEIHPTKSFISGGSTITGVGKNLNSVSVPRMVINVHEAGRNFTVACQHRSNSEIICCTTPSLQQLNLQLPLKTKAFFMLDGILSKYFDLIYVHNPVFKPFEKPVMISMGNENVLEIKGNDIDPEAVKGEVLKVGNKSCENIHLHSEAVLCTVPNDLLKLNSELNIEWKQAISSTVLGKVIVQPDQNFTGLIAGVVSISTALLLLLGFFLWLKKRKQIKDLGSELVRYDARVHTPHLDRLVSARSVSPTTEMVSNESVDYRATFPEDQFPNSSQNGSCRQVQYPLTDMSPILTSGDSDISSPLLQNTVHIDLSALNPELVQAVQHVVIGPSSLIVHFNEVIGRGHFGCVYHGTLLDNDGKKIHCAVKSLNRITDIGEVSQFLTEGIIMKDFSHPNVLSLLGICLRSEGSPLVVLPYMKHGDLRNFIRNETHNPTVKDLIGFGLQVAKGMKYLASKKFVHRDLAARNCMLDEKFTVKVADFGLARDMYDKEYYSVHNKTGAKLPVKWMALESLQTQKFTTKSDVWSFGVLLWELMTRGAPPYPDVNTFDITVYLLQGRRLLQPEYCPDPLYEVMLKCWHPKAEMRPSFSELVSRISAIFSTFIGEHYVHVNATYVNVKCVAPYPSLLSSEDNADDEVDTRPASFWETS
# Method: Compounds were screened in the TR-FRET assay with c-Met kinase. 0.1 ng of c-Met [expressed in-house] kinase was used for assay. The compound was incubated with the kinase for 60 min at RT. After the incubation, substrate mix [40 nM Ultra light poly GT (Perkin Elmer, USA) and 10 μM ATP (Sigma)] was added. The above reaction was stopped by the addition of 40 mM EDTA after the 30 min kinase reaction. The Eu-labelled antiphospho-tyrosine antibody [Perkin Elmer, USA] was added at 0.5 nM and the fluorescence emission at 615 nm/665 nm [excitation at 340 nm] was measured. The compounds were initially screened at 100 nM and 1 μM concentrations. The compounds with >50% inhibition at 100 nM of c-Met were taken for the full dose response studies. The final DMSO concentration in the assay was 1%. For IC50 determination, ⅓rd serial dilution was made from the 20 mM DMSO stock solution. 2 μl of these were transferred to the test wells containing 20 μl reaction mixture [total reaction volume 20 μl]. The fluorescence was measured in Perkin Elmer Wallac 1420 Multilabel Counter Victor 3. The IC50 was determined by fitting the dose response data to sigmoidal curve fitting equation using GraphPad Prism software V5.
# FGFR1 kinase, sequence (P11362 22-822): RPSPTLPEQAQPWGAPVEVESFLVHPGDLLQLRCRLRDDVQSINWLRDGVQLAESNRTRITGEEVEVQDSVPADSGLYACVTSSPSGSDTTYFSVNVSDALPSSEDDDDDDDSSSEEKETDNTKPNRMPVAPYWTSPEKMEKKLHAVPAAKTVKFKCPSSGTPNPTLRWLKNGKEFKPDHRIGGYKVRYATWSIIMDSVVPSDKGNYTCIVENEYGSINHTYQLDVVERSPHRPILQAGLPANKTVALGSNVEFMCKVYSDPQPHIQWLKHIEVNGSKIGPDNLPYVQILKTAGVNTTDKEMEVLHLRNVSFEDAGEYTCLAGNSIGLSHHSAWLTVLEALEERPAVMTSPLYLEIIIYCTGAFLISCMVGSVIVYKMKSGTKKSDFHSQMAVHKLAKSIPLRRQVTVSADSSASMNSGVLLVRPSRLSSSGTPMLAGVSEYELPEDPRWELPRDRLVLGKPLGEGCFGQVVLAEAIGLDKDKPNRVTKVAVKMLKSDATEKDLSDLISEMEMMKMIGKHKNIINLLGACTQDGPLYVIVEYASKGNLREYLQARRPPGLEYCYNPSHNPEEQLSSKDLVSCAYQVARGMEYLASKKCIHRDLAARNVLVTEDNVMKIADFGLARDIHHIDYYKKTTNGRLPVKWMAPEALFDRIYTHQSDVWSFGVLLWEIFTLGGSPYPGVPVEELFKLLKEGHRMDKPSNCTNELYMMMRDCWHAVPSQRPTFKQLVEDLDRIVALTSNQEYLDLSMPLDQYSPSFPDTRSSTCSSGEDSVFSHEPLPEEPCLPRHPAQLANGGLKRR
Compound,inhibition at 1 µM (FGFR1 kinase; 1000 nM compound),IC50 (FGFR1 kinase),inhibition at 1 µM (c-Met kinase),Inhibition (%) of FGFR1 at 1000 nM (FGFR1 kinase; 1000 nM compound)
"Cn1cc(-c2ccc3c(c2)ncn3-c2cc(NS(=O)(=O)C3CC3)cc(-c3ccc(F)cc3F)c2)cn1 [Example 5, N-(2′,4′-difluoro-5-(5-(1-methyl-1H-pyrazol-4-yl)-1H-benzo[d]imidazol-1-yl)-biphenyl-3-yl)cyclopropanesulfonamide]",95%,12 nM,7%,
"CC(C)S(=O)(=O)Nc1cc(-c2ccc(F)cc2F)cc(-n2cnc3cc(-c4cnco4)ccc32)c1 [Example 25, N-(2′,4′-difluoro-5-(5-(oxazol-5-yl)-1H-benzo[d]imidazol-1-yl)biphenyl-3-yl)-propane-2-sulfonamide]",93%,34 nM,12%,
"CCS(=O)(=O)Nc1cc(-c2ccc(F)cc2F)cc(-n2cnc3cc(-n4cccn4)ccc32)c1 [Example 30, N-(5-(5-(1H-pyrazol-1-yl)-1H-benzo[d]imidazol-1-yl)-2′,4′-difluorobiphenyl-3-yl)ethanesulfonamide]",94%,16 nM,1%,
"O=C(Nc1cc(-c2ccc(F)cc2F)cc(-n2cnc3cc(-n4cccn4)ccc32)c1)NC1CCCC1 [Example 38, 1-(5-(5-(1H-pyrazol-1-yl)-1H-benzo[d]imidazol-1-yl)-2′,4′-difluorobiphenyl-3-yl)-3-cyclopentylurea]",88%,33 nM,0%,
"CC(C)(O)CCn1cc(-c2ccc3c(c2)ncn3-c2cc(NS(=O)(=O)C3CC3)cc(-c3ccc(F)cc3F)c2)nn1 [Example 47, N-(2′,4′-difluoro-5-(5-(1-(3-hydroxy-3-methylbutyl)-1H-1,2,3-triazol-4-yl)-1H-benzo[d]imidazol-1-yl)biphenyl-3-yl)cyclopropanesulfonamide]",99%,7 nM,10%,
"CC(=O)Nc1cc(-c2ccc(F)cc2F)cc(-n2cnc3cc(C4=NCCN4)ccc32)c1 [Example 169, N-(5-(5-(4,5-dihydro-1H-imidazol-2-yl)-1H-benzo[d]imidazol-1-yl)-2′,4′-difluoro-[1,1′-biphenyl]-3-yl)acetamide]",89%,94 nM,,
"CC(C)n1cc(-c2ccc3c(c2)ncn3-c2cc(NS(=O)(=O)C3CC3)cc(-c3ccc(F)cc3F)c2)cn1 [Example 204, N-(2′,4′-difluoro-5-(5-(1-isopropyl-1H-pyrazol-4-yl)-1H-benzo[d]imidazol-1-yl)-[1,1′-biphenyl]-3-yl)cyclopropanesulfonamide]",98%,20 nM,,
"Cn1cc(-c2ccc3c(c2)ncn3-c2cc(NC(=O)Cn3cncn3)cc(-c3ccc(F)cc3F)c2)cn1 [Example 241, N-(2′,4′-difluoro-5-(5-(1-methyl-1H-pyrazol-4-yl)-1H-benzo[d]imidazol-1-yl)-[1,1′-biphenyl]-3-yl)-2-(1H-1,2,4-triazol-1-yl) acetamide]",,2.9 nM,,97%
"Cn1cc(-c2ccc3c(c2)ncn3-c2cc(Nc3ncccn3)cc(-c3ccc(F)cc3F)c2)cn1 [Example 280, N-(2′,4′-difluoro-5-(5-(1-methyl-1H-pyrazol-4-yl)-1H-benzo[d]imidazol-1-yl)-[1,1′-biphenyl]-3-yl)pyrimidin-2-amine]",80%,90 nM,,
"O=c1ccc(-c2ccc3c(c2)ncn3-c2cc(NS(=O)(=O)C3CC3)cc(-c3ccc(F)cc3F)c2)c[nH]1 [Example 289, N-(2′,4′-difluoro-5-(5-(6-oxo-1,6-dihydropyridin-3-yl)-1H-benzo[d]imidazol-1-yl)-[1,1′-biphenyl]-3-yl)cyclopropanesulfonamide]",94%,32 nM,,
"CS(=O)(=O)Nc1cc(-c2ncccc2F)cc(-n2cnc3cc(-c4cnn(CCN5CCOCC5)c4)ccc32)c1 [Example 294, N-(3-(3-fluoropyridin-2-yl)-5-(5-(1-(2-morpholinoethyl)-1H-pyrazol-4-yl)-1H-benzo[d]imidazol-1-yl)phenyl)methane sulphonamide]",99%,9.3 nM,,
"O=S(=O)(Nc1cc(C2=CC=C(F)CC2F)cc(-n2cnc3cc(N4CCC(O)C4)ccc32)c1)C1CC1 (centres unmarked) [Example 322, N-(2′,4′-difluoro-5-(5-(3-hydroxypyrrolidin-1-yl)-1H-benzo[d]imidazol-1-yl)-2′,3′-dihydro-[1,1′-biphenyl]-3-yl)cyclopropanesulfonamide]",92%,65.8 nM,,

# Further compounds by falling IC50 (FGFR1 kinase), results first:
inhibition at 1 µM (FGFR1 kinase; 1000 nM compound),IC50 (FGFR1 kinase),inhibition at 1 µM (c-Met kinase),Compound,Inhibition (%) of FGFR1 at 1000 nM (FGFR1 kinase; 1000 nM compound)
92%,59 nM,,"CC(=O)Nc1cc(-c2ccc(F)cc2)cc(-n2cnc3cc(-c4ccc(F)nc4)ccc32)c1 [Example 170, N-(4′-fluoro-5-(5-(6-fluoropyridin-3-yl)-1H-benzo[d]imidazol-1-yl)-[1,1′-biphenyl]-3-yl)acetamide]",
92%,45 nM,,"O=C(CN1CCCCC1)Nc1cc(-c2ccc(F)cc2F)cc(-n2cnc3cc(-n4cccn4)ccc32)c1 [Example 259, N-(5-(5-(1H-pyrazol-1-yl)-1H-benzo[d]imidazol-1-yl)-2′,4′-difluoro-[1,1′-biphenyl]-3-yl)-2-(piperidin-1-yl)acetamide]",
93%,21 nM,2%,"O=S(=O)(Nc1cc(-c2ccc(F)cc2F)cc(-n2cnc3cc(-c4cnco4)ccc32)c1)c1ccccc1 [Example 26, N-(2′,4′-difluoro-5-(5-(oxazol-5-yl)-1H-benzo[d]imidazol-1-yl)biphenyl-3-yl)-benzenesulfonamide]",
97%,18 nM,,"CN1CCC(C(=O)Nc2cc(-c3ccc(F)cc3F)cc(-n3cnc4cc(-c5cnn(C)c5)cnc43)c2)CC1 [Example 319, N-(2′,4′-difluoro-5-(6-(1-methyl-1H-pyrazol-4-yl)-3H-imidazo[4,5-b]pyridin-3-yl)-[1,1′-biphenyl]-3-yl)-1-methylpiperidine-4-carboxamide]",
86%,14.9 nM,,"CC(=O)Nc1cc(-c2ccc(F)cc2F)cc(-n2cnc3cc(-c4ccc(F)nc4)cnc32)c1 [Example 178, N-(2′,4′-difluoro-5-(6-(6-fluoropyridin-3-yl)-3H-imidazo[4,5-b]pyridin-3-yl)-[1,1′-biphenyl]-3-yl)acetamide]",
98%,14 nM,,"Cn1cc(-c2cnc3c(c2)ncn3-c2cc(NS(=O)(=O)NC3CC3)cc(-c3ccc(F)cc3F)c2)cn1 [Example 244, N-cyclopropyl-N′-(2′,4′-difluoro-5-(6-(1-methyl-1H-pyrazol-4-yl)-3H-imidazo[4,5-b]pyridin-3-yl)-[1,1′-biphenyl]-3-yl)-sulfuric diamide]",
91%,10.4 nM,,"CNS(=O)(=O)N(C)c1cc(-c2ccc(F)cc2F)cc(-n2cnc3cc(-c4cnn(C(C)C)c4)cnc32)c1 [Example 217, N-(2′,4′-difluoro-5-(6-(1-isopropyl-1H-pyrazol-4-yl)-3H-imidazo[4,5-b]pyridin-3-yl)-[1,1′-biphenyl]-3-yl)-N,N′-dimethylsulfuric diamide]",
96%,9 nM,,"Cn1cc(-c2ccc3c(c2)ncn3-c2cc(Nc3nccs3)cc(-c3ccc(F)cc3F)c2)cn1 [Example 281, N-(2′,4′-difluoro-5-(5-(1-methyl-1H-pyrazol-4-yl)-1H-benzo[d]imidazol-1-yl)-[1,1′-biphenyl]-3-yl) thiazol-2-amine]",
96%,4.3 nM,,"COc1ccc(-c2cc(NC(C)=O)cc(-n3cnc4cc(-c5cnn(C)c5)ccc43)c2)c(F)c1 [Example 190, N-(2′-fluoro-4′-methoxy-5-(5-(1-methyl-1H-pyrazol-4-yl)-1H-benzo[d]imidazol-1-yl)-[1,1′-biphenyl]-3-yl)acetamide]",
99%,3.8 nM,5%,"CC(=O)Nc1cc(-c2ccc(F)cc2F)cc(-n2cnc3cc(-c4cnco4)ccc32)c1 [Example 22, N-(2′,4′-difluoro-5-(5-(oxazol-5-yl)-1H-benzo[d]imidazol-1-yl)biphenyl-3-yl)-acetamide]",
97%,3.4 nM,,"CC(=O)Nc1cc(-c2ccc(F)cc2)cc(-n2cnc3cc(-c4cnn(CCC(C)(C)O)c4)ccc32)c1 [Example 220, N-(4′-fluoro-5-(5-(1-(3-hydroxy-3-methylbutyl)-1H-pyrazol-4-yl)-1H-benzo[d]-imidazol-1-yl)-[1,1′-biphenyl]-3-yl) acetamide]",
